pEC50: −log10 of the molar value.
Tests used:
USP7 = molecular target: T1, USP7 (Homo sapiens, UniProt Q93009); assay: USP7, Ub-PLA2 assay; assay type: biochemical; details: for pEC50: Ub-PLA2 / NBD C6-HPC fluorescence, 30 minute preincubation, read-out: EC50 for inhibition of USP7; for USP7 inhibition, result in words: USP7, Ub-PLA2 assay
T1 construct: full length human USP7 protein; made in house
Method in brief: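 Activity read as fluorescence in a Ub-PLA2 format, with percent inhibition calculated within each plate against DMSO (uninhibited) and NEM (background) wells. Vehicle was 100% DMSO.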

[1] = HCT-116 Cellular Cytotoxicity Assay; details: human, HCT-116 cells, pH 7.2
Experimental: The purpose of this assay is to determine if any of the synthesized compounds are cytotoxic against HCT-116 cells, as measured by resazurin metabolism. Resazurin is metabolized only by living cells from a non-fluorescent molecule into Resorufin, a highly red fluorescent dye. […] The cells were cultured in an incubator at 37° C. in 5% CO2 and 95% humidified air. […] The final concentration DMSO was 0.5% (v/v) in all samples. The plates were returned to the incubator for 72 hours. Following 72 hours of test compound exposure, 10 μL of 0.2 mg/mL Resazurin (Sigma) in phosphate buffered saline was added to each well and the plate was returned to the incubator for 3-6 hours. Since living cells metabolize Resazurin, the fluorescence of the reduction product of Resazurin was measured using a microplate fluorometer with λex=531 nm and λem=590 nm filters. Resazurin dye in medium without cells was used to determine the background, which was subtracted from the data for all experimental wells.

T1 sequence (Q93009 whole entry): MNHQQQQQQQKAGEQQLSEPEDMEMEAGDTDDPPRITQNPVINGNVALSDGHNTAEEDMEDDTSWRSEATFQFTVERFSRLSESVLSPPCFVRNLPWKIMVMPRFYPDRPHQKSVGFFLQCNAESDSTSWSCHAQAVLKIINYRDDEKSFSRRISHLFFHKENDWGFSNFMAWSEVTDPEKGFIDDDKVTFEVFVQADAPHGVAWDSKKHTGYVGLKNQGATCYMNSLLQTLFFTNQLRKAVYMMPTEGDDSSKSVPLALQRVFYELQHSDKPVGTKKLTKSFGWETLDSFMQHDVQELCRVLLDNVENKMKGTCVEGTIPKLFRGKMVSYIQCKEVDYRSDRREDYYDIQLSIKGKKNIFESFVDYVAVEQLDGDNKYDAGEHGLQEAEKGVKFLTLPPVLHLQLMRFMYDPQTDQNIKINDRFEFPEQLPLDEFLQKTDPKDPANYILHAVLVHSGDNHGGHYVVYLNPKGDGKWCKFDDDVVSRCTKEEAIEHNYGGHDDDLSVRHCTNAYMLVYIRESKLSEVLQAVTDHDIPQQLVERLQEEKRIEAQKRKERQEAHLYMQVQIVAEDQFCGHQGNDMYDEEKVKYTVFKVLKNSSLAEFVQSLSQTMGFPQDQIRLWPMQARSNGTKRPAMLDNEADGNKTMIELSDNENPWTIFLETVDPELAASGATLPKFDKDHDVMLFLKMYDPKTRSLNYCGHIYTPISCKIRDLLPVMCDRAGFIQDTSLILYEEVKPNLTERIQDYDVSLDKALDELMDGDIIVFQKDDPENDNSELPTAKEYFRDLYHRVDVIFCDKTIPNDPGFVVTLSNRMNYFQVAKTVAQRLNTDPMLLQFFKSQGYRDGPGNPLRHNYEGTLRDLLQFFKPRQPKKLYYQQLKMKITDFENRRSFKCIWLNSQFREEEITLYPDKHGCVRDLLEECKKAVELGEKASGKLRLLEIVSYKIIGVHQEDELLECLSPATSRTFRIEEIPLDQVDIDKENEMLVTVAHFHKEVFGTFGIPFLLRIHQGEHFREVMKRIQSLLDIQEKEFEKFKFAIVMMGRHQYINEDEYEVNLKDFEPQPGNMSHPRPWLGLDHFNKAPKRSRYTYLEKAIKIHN

Row | Compound | pEC50 (USP7) | EC50 at 72 h [1] [µM] | USP7 inhibition, result in words (USP7)
1 | O=C(Nc1ccc(N2CCOCC2)cc1)c1cc([N+](=O)[O-])c(Sc2c(Cl)cncc2Cl)s1 [Example 157, 5-((3,5-dichloropyridin-4-yl)thio)-N-(4-morpholinophenyl)-4-nitrothiophene-2-carboxamide] | ≥ 6.00 | 27.3 | 
2 | O=C(Nc1cnc2ccccc2c1)c1cc([N+](=O)[O-])c(Sc2c(Cl)cncc2Cl)s1 [Example 173, 5-((3,5-dichloropyridin-4-yl)thio)-4-nitro-N-(quinolin-3-yl)thiophene-2-carboxamide] | ≥ 6.00 | 5.15 | Particularly good results
3 | O=C(Nc1cc(C2CC2)n[nH]1)c1cc([N+](=O)[O-])c(Sc2c(Cl)cncc2Cl)s1 [Example 123, N-(3-cyclopropyl-1H-pyrazol-5-yl)-5-((3,5-dichloropyridin-4-yl)thio)-4-nitrothiophene-2-carboxamide] | ≥ 6.00 | 11 | Particularly good results
4 | O=C(Nc1nccs1)c1cc([N+](=O)[O-])c(Sc2c(Cl)cncc2Cl)s1 [Example 172, 5-((3,5-dichloropyridin-4-yl)thio)-4-nitro-N-(thiazol-2-yl)thiophene-2-carboxamide] | ≥ 6.00 | 12.9 | 
5 | CC(=O)c1cc([N+](=O)[O-])c(Sc2cc(Cl)cc(Cl)c2)s1 [Example 9, 1-[5-(3,5-Dichlorophenylsulfanyl)-4-nitro-2-thienyl]ethanone] | 5.00 to 6.00 | 8.13 | 
6 | O=C(Nc1ccon1)c1cc([N+](=O)[O-])c(Sc2c(Cl)cncc2Cl)s1 [Example 171, 5-((3,5-dichloropyridin-4-yl)thio)-N-(isoxazol-3-yl)-4-nitrothiophene-2-carboxamide] | ≥ 6.00 | 10.9 | 
7 | O=C(Nc1ccc2ncccc2c1)c1cc([N+](=O)[O-])c(Sc2c(Cl)cncc2Cl)s1 [Example 180, 5-((3,5-dichloropyridin-4-yl)thio)-4-nitro-N-(quinolin-6-yl)thiophene-2-carboxamide] | ≥ 6.00 | 7.62 | 
8 | CC(=O)c1cc([N+](=O)[O-])c(Sc2c(Cl)cccc2Cl)s1 [Example 7, 1-[5-(2,6-Dichlorophenylsulfanyl)-4-nitro-2-thienyl]ethanone] | 5.00 to 6.00 | 30.6 | 
9 | CN(C)CCOc1ccc(NC(=O)c2cc([N+](=O)[O-])c(Sc3c(Cl)cncc3Cl)s2)cc1 [Example 192, 5-((3,5-dichloropyridin-4-yl)thio)-N-(4-(2-(dimethylamino)ethoxy)phenyl)-4-nitrothiophene-2-carboxamide] | ≥ 6.00 | 4.9 | 
10 | CN1C(C)(C)CC(NC(=O)c2cc([N+](=O)[O-])c(Sc3c(Cl)cncc3Cl)s2)CC1(C)C [Example 188, 5-((3,5-dichloropyridin-4-yl)thio)-4-nitro-N-(1,2,2,6,6-pentamethylpiperidin-4-yl)thiophene-2-carboxamide] | ≥ 6.00 | 7.9 | 
11 | CS(=O)(=O)c1ccc(NC(=O)c2cc([N+](=O)[O-])c(Sc3c(Cl)cncc3Cl)s2)cc1 [Example 129, 5-((3,5-dichloropyridin-4-yl)thio)-N-(4-(methylsulfonyl)phenyl)-4-nitrothiophene-2-carboxamide] | ≥ 6.00 | 5.89 | Particularly good results
12 | CC(=O)c1cc(C#N)c(Sc2ccc(Cl)cc2Cl)s1 [Example 21, 1-[4-cyano-5-(2,4-dichlorophenyl)sulfanyl-2-thienyl]ethanone] | < 5.00 | 32.5 | 
13 | COc1ccc(NC(=O)c2cc([N+](=O)[O-])c(Sc3c(Cl)cncc3Cl)s2)cn1 [Example 175, 5-((3,5-dichloropyridin-4-yl)thio)-N-(6-methoxypyridin-3-yl)-4-nitrothiophene-2-carboxamide] | ≥ 6.00 | 7.23 | 
14 | COc1cc(NC(=O)c2cc(C#N)c(Sc3c(Cl)cncc3Cl)s2)ccc1OCCCN(C)C [Example 205, 4-cyano-5-((3,5-dichloropyridin-4-yl)thio)-N-(4-(3-(dimethylamino)propoxy)-3-methoxyphenyl)thiophene-2-carboxamide] | ≥ 6.00 | 3.1 | 
15 | NS(=O)(=O)c1ccc(NC(=O)c2cc([N+](=O)[O-])c(Sc3c(Cl)cncc3Cl)s2)cc1 [Example 160, 5-((3,5-dichloropyridin-4-yl)thio)-4-nitro-N-(4-sulfamoylphenyl)thiophene-2-carboxamide] | ≥ 6.00 | 6.17 | 
16 | CN1CCC(NC(=O)c2cc(C#N)c(Sc3c(Cl)cncc3Cl)s2)CC1 [Example 203, 4-cyano-5-((3,5-dichloropyridin-4-yl)thio)-N-(1-methylpiperidin-4-yl)thiophene-2-carboxamide] | 5.00 to 6.00 | 10.4 | 
17 | O=C(Nc1cccc2cnccc12)c1cc([N+](=O)[O-])c(Sc2c(Cl)cncc2Cl)s1 [Example 179, 5-((3,5-dichloropyridin-4-yl)thio)-N-(isoquinolin-5-yl)-4-nitrothiophene-2-carboxamide] | ≥ 6.00 | 4.23 | 
18 | CC(=O)N1CCC(NC(=O)c2cc([N+](=O)[O-])c(Sc3c(Cl)cncc3Cl)s2)CC1 [Example 232, N-(1-acetylpiperidin-4-yl)-5-((3,5-dichloropyridin-4-yl)thio)-4-nitrothiophene-2-carboxamide] | 5.00 to 6.00 |  | 

Row | Compound | pEC50 (USP7) | EC50 at 72 h [1] [µM] | USP7 inhibition, result in words (USP7)
19 | COC(=O)c1cc([N+](=O)[O-])c(Sc2c(F)cncc2F)s1 [Example 255, Methyl 5-((3,5-difluoropyridin-4-yl)thio)-4-nitrothiophene-2-carboxylate] | 5.00 to 6.00 |  | 
20 | O=C(O)CNC(=O)c1cc([N+](=O)[O-])c(Sc2c(Cl)cncc2Cl)s1 [Example 210, 2-(5-((3,5-dichloropyridin-4-yl)thio)-4-nitrothiophene-2-carboxamido)acetic acid] | 5.00 to 6.00 |  | 
21 | O=C(NCC(=O)N1CCCCC1)c1cc([N+](=O)[O-])c(Sc2c(Cl)cncc2Cl)s1 [Example 221, 5-((3,5-dichloropyridin-4-yl)thio)-4-nitro-N-(2-oxo-2-(piperidin-1-yl)ethyl)thiophene-2-carboxamide] | 5.00 to 6.00 |  | 
22 | O=C(Nc1ccc(F)c(Cl)c1)c1cc([N+](=O)[O-])c(Sc2c(Cl)cncc2Cl)s1 [Example 137, N-(3-chloro-4-fluorophenyl)-5-((3,5-dichloropyridin-4-yl)thio)-4-nitrothiophene-2-carboxamide] | ≥ 6.00 |  | 
23 | O=C(NCCCN1CCCC1=O)c1cc([N+](=O)[O-])c(Sc2c(Cl)cncc2Cl)s1 [Example 104, 5-((3,5-dichloropyridin-4-yl)thio)-4-nitro-N-(3-(2-oxopyrrolidin-1-yl)propyl)thiophene-2-carboxamide] | ≥ 6.00 |  | 
24 | CN1CCN(C(=O)CNC(=O)c2cc([N+](=O)[O-])c(Sc3c(Cl)cncc3Cl)s2)CC1 [Example 218, 5-((3,5-dichloropyridin-4-yl)thio)-N-(2-(4-methylpiperazin-1-yl)-2-oxoethyl)-4-nitrothiophene-2-carboxamide] | 5.00 to 6.00 |  | 
25 | O=C(NCCCN1CCC(O)CC1)c1cc([N+](=O)[O-])c(Sc2c(Cl)cncc2Cl)s1 [Example 225, 5-((3,5-dichloropyridin-4-yl)thio)-N-(3-(4-hydroxypiperidin-1-yl)propyl)-4-nitrothiophene-2-carboxamide] | ≥ 6.00 |  | 
26 | O=C(NCc1cccc(Cl)c1)c1cc([N+](=O)[O-])c(Sc2c(Cl)cncc2Cl)s1 [Example 57, N-(3-chlorobenzyl)-5-((3,5-dichloropyridin-4-yl)thio)-4-nitrothiophene-2-carboxamide] | 5.00 to 6.00 |  | 
27 | O=C(NC1CCN(C2CC2)CC1)c1cc([N+](=O)[O-])c(Sc2c(Cl)cncc2Cl)s1 [Example 231, N-(1-cyclopropylpiperidin-4-yl)-5-((3,5-dichloropyridin-4-yl)thio)-4-nitrothiophene-2-carboxamide] | 5.00 to 6.00 |  | 
28 | O=C(NC1CC1)c1cc([N+](=O)[O-])c(Sc2c(Cl)cncc2Cl)s1 [Example 124, N-cyclopropyl-5-((3,5-dichloropyridin-4-yl)thio)-4-nitrothiophene-2-carboxamide] | ≥ 6.00 |  | 
29 | CC1(C)CCN(C(=O)c2cc([N+](=O)[O-])c(Sc3c(Cl)cncc3Cl)s2)CC1 [Example 80, (5-((3,5-dichloropyridin-4-yl)thio)-4-nitrothiophen-2-yl)(4,4-dimethylpiperidin-1-yl)methanone] | 5.00 to 6.00 |  | 
30 | CC(C)NC(=O)c1cc([N+](=O)[O-])c(Sc2c(Cl)cncc2Cl)s1 [Example 44, 5-[(3,5-dichloro-4-pyridyl)sulfanyl]-N-isopropyl-4-nitro-thiophene-2-carboxamide] | 5.00 to 6.00 |  | 
31 | NC(=O)C1CCN(CCCNC(=O)c2cc([N+](=O)[O-])c(Sc3c(Cl)cncc3Cl)s2)CC1 [Example 226, 1-(3-(5-((3,5-dichloropyridin-4-yl)thio)-4-nitrothiophene-2-carboxamido)propyl)piperidine-4-carboxamide] | ≥ 6.00 |  | 
32 | CC(=O)c1cc([N+](=O)[O-])c(Sc2nccs2)s1 [Example 14, 1-(4-nitro-5-thiazol-2-ylsulfanyl-2-thienyl)ethanone] | < 5.00 |  | 
33 | CN1CCC(CNC(=O)c2cc([N+](=O)[O-])c(Sc3c(Cl)cncc3Cl)s2)CC1 [Example 190, 5-((3,5-dichloropyridin-4-yl)thio)-N-((1-methylpiperidin-4-yl)methyl)-4-nitrothiophene-2-carboxamide] | ≥ 6.00 |  | 
34 | CN1CCC(NC(=O)c2cc([N+](=O)[O-])c(Sc3c(Cl)cncc3Cl)s2)C1 (stereo not shown) [Example 94, 5-((3,5-dichloropyridin-4-yl)thio)-N-(1-methylpyrrolidin-3-yl)-4-nitrothiophene-2-carboxamide] | 5.00 to 6.00 |  | 
35 | O=C(NCCCN1CCC(CO)CC1)c1cc([N+](=O)[O-])c(Sc2c(Cl)cncc2Cl)s1 [Example 227, 5-((3,5-dichloropyridin-4-yl)thio)-N-(3-(4-(hydroxymethyl)piperidin-1-yl)propyl)-4-nitrothiophene-2-carboxamide] | ≥ 6.00 |  | 

From patent US8680139B2 (Progenra, priority 2009, dated 2014)
